The record followed here is patent publication US11332470B2, “CXCR4 inhibitors and uses thereof” (X4 Pharmaceuticals, Inc., priority 2016, dated 2022).

One data set has as its target T1, CXCR4 (U87.CXCR4 cells) (Homo sapiens, UniProt P61073).
T1 construct: expressed in transfected cells; host or cells: U87 (U87.CXCR4)
Put plainly: Intracellular CXCL-12-induced calcium mobilization assay (FLIPR). Format: cell-based. The settings on record: CXCL-12 25-50 ng/mL, read-out: IC50 CXCL-12 Ca2+ flux U87.CXCR4+. Summed up: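 U87.CXCR4 cells were loaded with 4 μM Fluo-2 AM for 45 min at 37 °C in HBSS/20 mM HEPES/0.2% BSA, pH 7.4. Calcium flux induced by CXCL-12 (25-50 ng/mL) was monitored kinetically by FLIPR fluorescence at 37 °C.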

Data set [1] has as its target T2, CXCR4 (Jurkat cells expressing CXCR4) (Homo sapiens, UniProt P61073).
T2 construct: Jurkat cells expressing CXCR4; endogenous in cells; host or cells: Jurkat
In words: Chemokine (CXCL12-AF647) binding inhibition assay. The settings on record: CXCL12-AF647 25 ng/mL, read-out: IC50 CXCL-12 binding Jurkat. Summed up:
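Cells in HBSS, 20 mM HEPES, 0.2% BSA, pH 7.4, preincubated 15 min at room temperature with compound, then 25 ng/mL CXCL12-AF647 for 30 min. After washing and paraformaldehyde fixation, bound ligand read by flow cytometry; percent inhibition calculated from MFI relative to unlabeled and ligand-only controls.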

A short description of a further data set: in vitro. The settings on record: human, Caco-2, pH 7.4. The essentials: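 Compound at 10 μM in HBSS pH 7.4 dosed A-to-B and B-to-A across Caco-2 monolayers, 90 min at 37 °C, duplicates. Monolayer integrity by TEER and lucifer yellow (5 μM, fluorescence 485/535 nm); compound quantified by LC-MS/MS.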
Data set [2] can be described thus: Mouse brain uptake assay (pharmacokinetics and brain penetration after IV administration). Format: in vivo, Male CD1 Mice. Particulars: male, 3 mg/kg IV, 3 time points; for Kp: CD1, brain and plasma, read-out: Kp (brain/plasma drug concentration ratio, AUC last(b)/AUC last(p)); for Kp / clearance / half-life: mouse, 0-1 h; for clearance / half-life: CD1, plasma; for clearance: read-out: Cl (Clearance) (converted); for half-life: read-out: t½ (half life) (converted); for AUC(0-t): CD1, time zero to 1 hr. Here is the method:
Example 15: Pharmacokinetics and Brain Penetration Experiment to Determine Brain and Plasma Concentrations of Compounds after IV Administration to Male CD1 Mice or Male SD Rats
The study design (9 animals) consisted of administrating the drug (IV: 3 mg/kg (5 mL/kg) via tail vein injection) and collecting samples at terminal bleeding for plasma and brain at 0.083, 0.5 and 1 h. The blood collection was performed as follows: the animal was restrained manually and approximately 150 μL blood/time point was collected into a dipotassium EDTA tube via retro orbital puncture under anesthesia with isoflurane. The blood sample was put on ice and centrifuged to obtain a plasma sample (2000 g, 5 min under 4° C.) within 15 minutes. The brain collection was performed as follows: a mid-line incision was made in the animal's scalp and the skin was retracted. Using small bone cutters and rongeurs, the skull overlying the brain was removed. The brain was removed using a spatula and the brain rinsed with cold saline. The brain was placed in screw-top tubes, and the tubes were stored at −70° C. until analysis. The IV dosing solution was prepared in 50 mM citrate buffer (pH 4.0) at 0.6 mg/mL.
Plasma Sample Preparation:
An aliquot of 30 μL sample was added to […] containing 50 ng/mL IS (Dexamethasone). The mixture was vortexed for 5 min and centrifuged at 14,000 rpm for 5 min. An aliquot of 5 μL supernatant was injected for LC-MS/MS analysis.
Brain Sample Preparation:
An aliquot of 30 μL brain homogenate (brain:PBS=1:3, w/v) sample was added to 150 μL IS in MeCN (Dexamethasone, 50 ng/mL). The mixture was vortexed for 5 min and centrifuged at 14,000 rpm for 5 min. An aliquot of 5 μL supernatant was injected for LC-MS/MS analysis.
The sample analysis was performed on LCMS/MS-003 (API4000, triple quadruple) under the following conditions: positive ion, ESI, MRM detection using dexamethasone as internal standard. HPLC conditions: mobile phase A: H2O (0.025% formic acid (FA) with 1 mM NH4OAc); mobile phase B: MeOH (0.025% FA with 1 mM NH4OAc) on Waters X-Bridge C18 (2.1×50 mm, 2.5 μm) column at 60° C.
A similar experiment was performed with 4 time points taken from 0-24 h.

Where [3] appears, read: mouse brain, read-out: AUClast (b) (area under the brain drug concentration-time curve).
[4] abbreviates: mouse plasma, read-out: AUClast (p) (area under the plasma drug concentration-time curve).

Read-outs that look alike come from different tables or passages of the source.

One may read the IC50 as the concentration needed to halve the response being measured. One may read the Papp A→B as the apparent permeability from the apical to the basolateral side of a cell layer. A higher Papp A→B goes with ready permeation. Usually Papp B→A stands for how fast a substance crosses the layer from the basolateral side. Broadly, the efflux ratio is a quotient of directional permeabilities that is used to spot active efflux. As a reminder, the clearance is the volume of plasma or blood freed of the substance per unit of time. As a reminder, the half-life is how long it takes for the measured level to halve.

T1 sequence (P61073 whole entry): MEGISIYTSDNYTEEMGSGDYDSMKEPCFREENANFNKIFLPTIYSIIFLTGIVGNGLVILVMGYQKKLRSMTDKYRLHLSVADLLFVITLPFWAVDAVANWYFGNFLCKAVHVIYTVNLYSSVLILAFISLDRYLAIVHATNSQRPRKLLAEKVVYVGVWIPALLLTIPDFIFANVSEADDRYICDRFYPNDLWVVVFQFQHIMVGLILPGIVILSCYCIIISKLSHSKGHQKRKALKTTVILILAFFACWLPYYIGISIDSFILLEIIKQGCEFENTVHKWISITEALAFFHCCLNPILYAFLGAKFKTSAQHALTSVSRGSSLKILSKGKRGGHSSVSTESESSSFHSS
T2 sequence (P61073 whole entry): as above

As to `CN1CCN(c2c(CN3CCCC3c3ncccc3Cl)nc3ccccn23)CC1` (stereo not shown) [Compound I-59], the IC50 on CXCR4 (U87.CXCR4 cells) lay within 0.01 to 100 nM. In data set [1], the IC50 fell in the range of 0.01 to 100 nM. In addition, in “in vitro”, the apical-to-basolateral permeability (Papp A→B) at 90 min, 10 μM lay within 0.1 to 10 ×10⁻⁶ cm/s; the apparent permeability from basolateral to apical (Papp B→A) at 90 min, 10 μM lay in the range of 10 to 30 ×10⁻⁶ cm/s; the efflux ratio at 90 min, 10 μM lay in the range of 0.1 to 10. Further, in data set [2], the Kp amounted to 1.05, the clearance is 58.3 mL/min/kg and the half-life was 3.71 h. For the same compound, the AUC(0-t) in data set [2] (setting [3]) turned out to be 240 ng·h/mL. For the same compound, in data set [2] (setting [4]), the AUC(0-t) worked out at 227 ng·h/mL.
In the case of `CN1CCN(c2c(CN3CCCC3c3ccccn3)nc3ccccn23)CC12CC2` (stereo not shown) [Compound I-58], the half-maximal inhibitory concentration (IC50) on CXCR4 (U87.CXCR4 cells) was 0.01 to 100 nM. The 50% inhibitory concentration (IC50) in data set [1] lay within 0.01 to 100 nM. Also, in “in vitro”, the Papp A→B at 90 min, 10 μM was in the range of 10 to 30 ×10⁻⁶ cm/s; the apparent permeability from basolateral to apical (Papp B→A) at 90 min, 10 μM was in the range of 10 to 30 ×10⁻⁶ cm/s; the efflux ratio at 90 min, 10 μM lay in the range of 0.1 to 10. In addition, in data set [2], the Kp was found to be 3.13, the clearance was 38.7 mL/min/kg and the half-life is 3.43 h. Also, in data set [2] (setting [3]), the AUC(0-t) is 1230 ng·h/mL. The AUC(0-t) in data set [2] (setting [4]) turned out to be 393 ng·h/mL.
On to `Cc1cccnc1CN1CCCC1c1nc2cccc(N3CCN(C)CC3)c2[nH]1` (stereo not shown) [Compound I-45], for which the half-inhibitory concentration (IC50) at CXCR4 (U87.CXCR4 cells) lay in the range of 0.01 to 100 nM. For the same compound, the IC50 in data set [1] was 0.01 to 100 nM. For the same compound, in “in vitro”, the Papp A→B at 90 min, 10 μM was 10 to 30 ×10⁻⁶ cm/s; the Papp B→A at 90 min, 10 μM lay within 10 to 30 ×10⁻⁶ cm/s; the efflux ratio at 90 min, 10 μM was 0.1 to 10. Also, in data set [2], the Kp turned out to be 5.51, the clearance was 41.8 mL/min/kg and the half-life is 3.99 h. In data set [2] (setting [3]), the AUC(0-t) was 833 ng·h/mL. Besides, the AUC(0-t) in data set [2] (setting [4]) was 151 ng·h/mL.
For `Cc1cccnc1C1CCCN1Cc1nc2ccccc2n1C1CCN(C)CC1` (stereo not shown) [Compound I-33], the IC50 on CXCR4 (U87.CXCR4 cells) lay in the range of 100 to 1000 nM. Also, the IC50 in data set [1] fell in the range of 0.01 to 100 nM. Moreover, in the data set “in vitro”, the Papp A→B at 90 min, 10 μM was 10 to 30 ×10⁻⁶ cm/s; the Papp B→A at 90 min, 10 μM lay in the range of 10 to 30 ×10⁻⁶ cm/s; the efflux ratio at 90 min, 10 μM lay in the range of 0.1 to 10. Further, in data set [2], the Kp turned out to be 6.6, the clearance was 27.5 mL/min/kg and the half-life was 4.93 h. Moreover, the AUC(0-t) in data set [2] (setting [3]) amounted to 1660 ng·h/mL. Besides, the AUC(0-t) in data set [2] (setting [4]) stood at 252 ng·h/mL.
